Laboratory results reported in US9138495B2, “Conjugates and their uses in molecular imaging” (King's College London, priority 2010, dated 2015).

Experiments:
human apo-transferrin = molecular target: T1, human apo-transferrin (Homo sapiens, UniProt P02787); assay: Tracer stability in apo-transferrin using 30 kDa MWCO filters; type: in vitro ADME; details: tracer radiolabelled at 100 μM ligand, 37° C.
T1 construct: purchased Sigma Aldrich T5391-10MG
Description: 50 mM TRIS-HCl buffer (pH 7.5) was prepared by dilution of a 1 M stock solution. Sodium bicarbonate was added to a concentration of 25 mM. A 2.5 mg/ml (32 μM) solution of apo-transferrin was prepared in this buffer. Solutions of all tracers were radiolabelled at a concentration of 100 μM. A 10 μM CP256 solution was also prepared. See table 9 for radiolabelling conditions. A 10 μl aliquot of each radiolabelled tracer was added to 30 μl of an appropriate buffer to neutralise the pH to between 7 and 7.5. This buffer was 2 M TRIS-HCl (pH 7.5) in the case of those tracers labelled in the acetate buffer. For preparations of ^67Ga-CP256 and ^67Ga-Citrate the buffer was PBS. Details can be seen in Table 9. Apo-transferrin solution (200 μl) in a plastic microcentrifuge tube was incubated at 37° C. in a metal heating block. To this was added 20 μl of each pH-neutralised tracer. 20 μl of each tracer was also incubated in a reference buffer (containing no apo-transferrin) of 50 mM TRIS-HCl containing 25 mM sodium bicarbonate. […] The filter section of the tube was removed and counted separately from the tube in a gamma counter. Percentage binding of the radioactivity to the MWCO filter was calculated using the following equation: Counts from filter section/Counts from filter section+counts from tube section×100 The analysis was done in triplicate after 4 hours for the apo-transferrin incubations. […]

sialoadhesin = molecular target: T2, sialoadhesin (Mus musculus, UniProt Q62230); type: in vivo; details: group 2: ^67Ga citrate 5 min after unconjugated SER4; wild type mice, 3 h
T2 construct: Sialoadhesin is found on the surface of macrophages; endogenous in cells; host or cells: macrophages (spleen, liver) of living wild-type C57Bl/6 mice
T2 sequence (Q62230 20-1695): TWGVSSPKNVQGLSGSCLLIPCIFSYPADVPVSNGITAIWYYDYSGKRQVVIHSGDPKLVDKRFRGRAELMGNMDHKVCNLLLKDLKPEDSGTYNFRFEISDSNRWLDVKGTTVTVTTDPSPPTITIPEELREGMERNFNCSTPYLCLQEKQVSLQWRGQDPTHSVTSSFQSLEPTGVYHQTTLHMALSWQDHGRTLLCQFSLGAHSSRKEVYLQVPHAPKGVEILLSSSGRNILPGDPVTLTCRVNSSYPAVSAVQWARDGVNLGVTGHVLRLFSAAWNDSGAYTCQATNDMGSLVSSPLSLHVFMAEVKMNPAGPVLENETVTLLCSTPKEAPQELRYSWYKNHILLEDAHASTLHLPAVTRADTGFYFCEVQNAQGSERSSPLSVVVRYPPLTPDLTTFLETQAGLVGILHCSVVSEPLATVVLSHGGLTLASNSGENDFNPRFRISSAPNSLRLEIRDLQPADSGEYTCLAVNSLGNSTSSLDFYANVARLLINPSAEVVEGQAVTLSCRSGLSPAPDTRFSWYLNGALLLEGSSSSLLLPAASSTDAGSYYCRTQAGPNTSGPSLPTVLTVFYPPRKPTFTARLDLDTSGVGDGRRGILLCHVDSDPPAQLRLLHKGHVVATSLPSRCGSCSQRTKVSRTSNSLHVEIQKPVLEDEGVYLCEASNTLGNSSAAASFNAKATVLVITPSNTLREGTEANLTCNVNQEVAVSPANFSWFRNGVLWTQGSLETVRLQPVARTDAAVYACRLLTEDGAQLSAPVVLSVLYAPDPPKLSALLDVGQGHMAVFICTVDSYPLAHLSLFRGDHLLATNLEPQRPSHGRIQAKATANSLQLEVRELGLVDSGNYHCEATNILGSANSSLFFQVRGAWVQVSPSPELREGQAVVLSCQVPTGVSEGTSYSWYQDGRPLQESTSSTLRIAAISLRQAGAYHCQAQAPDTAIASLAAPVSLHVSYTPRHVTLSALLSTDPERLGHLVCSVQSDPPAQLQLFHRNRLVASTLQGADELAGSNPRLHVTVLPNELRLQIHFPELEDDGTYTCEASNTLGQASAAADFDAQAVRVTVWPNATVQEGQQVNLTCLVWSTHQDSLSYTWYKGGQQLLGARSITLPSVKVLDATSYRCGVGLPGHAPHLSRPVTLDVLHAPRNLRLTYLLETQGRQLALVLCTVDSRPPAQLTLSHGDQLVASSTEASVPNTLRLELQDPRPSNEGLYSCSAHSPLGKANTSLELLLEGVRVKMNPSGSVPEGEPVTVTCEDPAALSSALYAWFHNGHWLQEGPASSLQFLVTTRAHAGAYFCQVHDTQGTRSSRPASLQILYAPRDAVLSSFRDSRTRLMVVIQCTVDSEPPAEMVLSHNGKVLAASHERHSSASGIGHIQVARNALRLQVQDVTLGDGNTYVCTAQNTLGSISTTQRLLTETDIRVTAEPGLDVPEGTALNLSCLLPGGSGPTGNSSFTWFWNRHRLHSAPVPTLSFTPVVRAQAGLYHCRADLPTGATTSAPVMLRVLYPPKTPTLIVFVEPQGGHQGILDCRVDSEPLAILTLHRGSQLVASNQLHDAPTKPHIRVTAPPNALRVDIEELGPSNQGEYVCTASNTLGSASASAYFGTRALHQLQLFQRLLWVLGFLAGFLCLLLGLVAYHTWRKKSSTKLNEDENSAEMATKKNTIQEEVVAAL
Description: CP256-SER4 was labelled with ^67Ga to give ^67Ga-CP256-SER4. Groups of wild type mice were injected with either directly labelled Ga-CP256-SER4 (group 1), or SER4 (unconjugated) followed 5 min later by ^67Ga citrate (group 2) or CP256-SER4 followed by ^67Ga citrate.
The same experiments were also performed using sialoadhesin knockout mice. All animals were killed after 3 h and biodistribution of radioactivity determined.
^67Gallium radiolabelling was performed by addition of 45 μL ^67Ga citrate (0.6-0.75 MBq) to 90 μL (90 μg) CP256-SER4. Radiolabelling was allowed to proceed for 10 min before dilution to 350 μL with phosphate buffered saline. Injections containing 25 μg of labelled antibody were drawn up. Analysis of the radiolabelled antibody was performed by size exclusion HPLC using 0.1 M phosphate buffer containing 2 mM EDTA as the mobile phase to ensure good radiolabelling had been achieved prior to injection into animals.
Groups of wild type mice (C57Bl/6, male 8-10 weeks, n=2 to 3 per group) were injected with either directly labelled ^67Ga-CP256-SER4 (group 1), or SER4 (unconjugated) followed 5 min later by ^67Ga citrate (group 2) or CP256-SER4 followed by ^67Ga citrate. […] All animals were killed after 3 h and biodistribution of radioactivity determined by explanting tissues and weighing and counting.

serum transferrin = molecular target: T3, serum transferrin (Homo sapiens, UniProt P02787); assay: Labelling of CP256 with ^68Ga in serum (PD10, ethanol precipitation, ITLC); type: in vitro ADME
T3 construct: from tissue; host or cells: human blood serum
T3 sequence (P02787 20-698): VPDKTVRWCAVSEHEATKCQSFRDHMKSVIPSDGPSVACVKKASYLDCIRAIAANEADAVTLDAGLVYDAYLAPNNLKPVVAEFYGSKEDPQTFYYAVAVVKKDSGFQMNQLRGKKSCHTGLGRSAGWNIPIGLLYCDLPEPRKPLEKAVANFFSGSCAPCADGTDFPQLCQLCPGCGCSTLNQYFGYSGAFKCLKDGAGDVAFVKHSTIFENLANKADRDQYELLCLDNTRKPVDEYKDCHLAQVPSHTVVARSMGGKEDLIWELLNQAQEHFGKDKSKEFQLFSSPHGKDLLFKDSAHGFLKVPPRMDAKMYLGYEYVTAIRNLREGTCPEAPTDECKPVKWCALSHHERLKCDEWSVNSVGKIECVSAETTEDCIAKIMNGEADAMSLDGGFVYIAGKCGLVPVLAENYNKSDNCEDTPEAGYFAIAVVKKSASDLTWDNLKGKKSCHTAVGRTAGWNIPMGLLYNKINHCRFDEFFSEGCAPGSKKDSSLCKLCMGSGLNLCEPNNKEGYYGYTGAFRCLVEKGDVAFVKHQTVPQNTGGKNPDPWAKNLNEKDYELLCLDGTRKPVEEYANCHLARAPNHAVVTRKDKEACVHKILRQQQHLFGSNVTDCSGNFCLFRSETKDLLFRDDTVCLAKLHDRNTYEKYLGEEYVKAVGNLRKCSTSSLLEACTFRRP
Description: Two different radiolabelling techniques were used. In method 1, 100 μl of chelator (CP-256, 2.35 mM, 1.17 mM, 589 μM, 117 μM, 23 μM and 11.7 μM; pH 7-7.5 in PBS/bicarbonate buffer) was mixed with 300 μl of human serum. After 10-15 minutes 20 μl of 68Ga eluate was added and the solution incubated at 37° C. in a plastic tube. In the second method, 20 μl of ^68Ga solution was added to the 300 μl of human blood serum. After 15-20 minutes 100 μl of chelator (Cp-256) was added. At each time point 50 μl of the incubation solution was applied to the top of the PD-10 column and eluted the column with PBS collecting 0.5 ml fractions. Fractions were counted in a gamma counter (Perkin Elmer wizard 31480 automatic gamma counter, 10 seconds per sample). The incubated solution were also analysed by ethanol precipitation, counting the pellet and supernatant after centrifugation to determine protein bound ^68Ga, and the centrifuged supernatants were analysed by ITLC-SG with 0.1 M sodium citrate as mobile phase. In these conditions “free” ^68Ga migrates with the solvent front (Rf=1) and ^68Ga-CP256 remains at the origin (Rf=0).

T1 sequence (P02787 20-698): as above

Row | % radioactivity bound to MWCO filter, in reference buffer (human apo-transferrin; 50 mM TRIS-HCl, 25 mM bicarbonate, no apo-transferrin) [%] | % radioactivity bound to MWCO filter, apo-transferrin incubation, after 4 hours (human apo-transferrin; apo-transferrin, 4 hours) [%] | activity in circulating blood (sialoadhesin) [% ID/g] | CP256 sample concentration giving a chromatogram similar to that of ^68Ga-CP256 in serum (serum transferrin; ^68Ga chloride added to mixture of CP256 and human serum) [µM] | free ^68Ga (ITLC of supernatants) (serum transferrin; serum containing CP256) | protein bound ^68Ga (ethanol precipitation) (serum transferrin; serum containing CP256) | Compound | chelation of ^68Ga in competition with serum transferrin (serum transferrin; ^68Ga chloride added to mixture of CP256 and human serum, 37° C.) | extraction of ^68Ga from ^68Ga-transferrin complex (serum transferrin; ^68Ga equilibrated first with serum, then CP256 added)
1 | 1.7 ± 0.5 | 73.0 ± 4.1 | 7 |  |  |  | O=C([O-])CC(O)(CC(=O)[O-])C(=O)[O-].[67Ga+3] [^67Ga-CITRATE] |  | 
2 |  |  |  | ≥ 23 | no detectable free ^68Ga | no measurable protein binding | CC(=O)NC(CCC(=O)NCc1c(O)c(=O)cc(C)n1C)(CCC(=O)NCc1c(O)c(=O)cc(C)n1C)CCC(=O)NCc1c(O)c(=O)cc(C)n1C.Cl.Cl.Cl [CP256, 4-Acetylamino-4-{2-[(3-hydroxy-1,6-dimethyl-4-oxo-1,4-dihydro-pyridin-2-ylmethyl)-carbamoyl]-ethyl}-heptanedioic acid bis-[(3-hydroxy-1,6-dimethyl-4-oxo-1,4-dihydro-pyridin-2-ylmethyl)-amide]tris hydrochloride salt] | competes effectively with serum transferrin | able to extract ^68Ga from ^68Ga-transferrin complex
